Measurements taken from patent US7030150B2, “Benzimidazole compounds and antiviral uses thereof” (Trimeris, Inc., priority 2001, dated 2006).

tested on: uninfected Hep2 cells

SMILES | CC50 [µM]
Fc1ccc(F)c(CNCc2nc3ccccc3n2Cc2nc3ccccc3[nH]2)c1 [compound 114] | ≥ 100
FC(F)(F)Oc1ccccc1Cn1c(CN2CCCCC2)nc2ccccc21 [compound 62] | 34
c1cncc(CNCc2nc3ccccc3n2Cc2nc3ccccc3[nH]2)c1 [compound 113] | ≥ 100
COc1ccc(N2CCN(Cc3nc4ccccc4n3Cc3nc4ccccc4[nH]3)CC2)cc1 [compound 197] | ≥ 100
FC(F)(F)c1ccc(CNCc2nc3ccccc3n2Cc2nc3ccccc3[nH]2)cc1 [compound 151] | ≥ 100
Fc1cc2c(c(Cn3c(CN4CCCCC4)nc4ccccc43)c1)OCOC2 [compound 73] | 101
c1ccc2[nH]c(Cn3c(CN4CCC4)nc4ccccc43)nc2c1 [compound 200] | 7.6
FC(F)(F)c1cccc(N2CCN(Cc3nc4ccccc4n3Cc3nc4ccccc4[nH]3)CC2)c1 [compound 219] | ≥ 100
COc1cc(CNCc2nc3ccccc3n2Cc2nc3ccccc3[nH]2)cc(OC)c1 [compound 122] | ≥ 100
CC(C)N(C)Cc1nc2ccccc2n1Cc1nc2ccccc2[nH]1 [compound 82] | 25
c1ccc(CCNCc2nc3ccccc3n2Cc2nc3ccccc3[nH]2)nc1 [compound 125] | ≥ 100
O=[N+]([O-])c1ccc(Cn2c(CN3CCCCC3)nc3ccccc32)o1 [compound 77] | ≥ 100
CCN1CCN(Cc2nc3ccccc3n2Cc2nc3ccccc3[nH]2)CC1 [compound 230] | ≥ 100
FC(F)(F)c1cnc(N2CCCN(Cc3nc4ccccc4n3Cc3nc4ccccc4[nH]3)CC2)c(Cl)c1 [compound 215] | ≥ 100
O=c1[nH]ccn1CCNCc1nc2ccccc2n1Cc1nc2ccccc2[nH]1 [compound 166] | ≥ 100
O=C1CCCN1CCCNCc1nc2ccccc2n1Cc1nc2ccccc2[nH]1 [compound 158] | ≥ 100
c1ccc(Oc2cccc(Cn3c(CN4CCCCC4)nc4ccccc43)c2)cc1 [compound 74] | 10
Fc1ccc(CNCc2nc3ccccc3n2Cc2nc3ccccc3[nH]2)cc1 [compound 126] | ≥ 100

SMILES | CC50 [µM]
FC(F)(F)Oc1ccccc1Cn1c(CN2CCCCC2)nc2ccccc21 [compound 75] | 24
CC1CCCCN1CCCNCc1nc2ccccc2n1Cc1nc2ccccc2[nH]1 (centres unmarked) [compound 160] | 88
c1ccc2nc(Cn3c(CN4CCCCC4)nc4ccccc43)ccc2c1 [compound 50] | 50
c1ccc2[nH]c(Cn3c(CNCCCn4ccnc4)nc4ccccc43)nc2c1 [compound 105] | 26
CCN(CCO)Cc1nc2ccccc2n1Cc1nc2ccccc2[nH]1 [compound 96] | ≥ 100
COC(=O)c1ccc2nc(CN3CCOCC3)n(Cc3nc4ccccc4[nH]3)c2c1 [compound 11] | 26
c1ccc(CC(NCc2nc3ccccc3n2Cc2nc3ccccc3[nH]2)c2ccccc2)cc1 (centres unmarked) [compound 168] | ≥ 100
Clc1ccc(CNCc2nc3ccccc3n2Cc2nc3ccccc3[nH]2)cc1Cl [compound 171] | 58
C=CCN(C)Cc1nc2ccccc2n1Cc1nc2ccccc2[nH]1 [compound 83] | 58
CC(C)N(Cc1nc2ccccc2n1Cc1cccc(Oc2ccccc2)c1)C1CCCCC1 [compound 12] | ≥ 100
CCCN(Cc1nc2ccccc2n1Cc1c2ccccc2nc2ccccc12)CC1CC1 [compound 23] | ≥ 101
CCCCCCCCN(CCCCCCCC)Cc1nc2ccccc2n1Cc1nc2ccccc2[nH]1 [compound 106] | 74
c1coc(CNCc2nc3ccccc3n2Cc2nc3ccccc3[nH]2)c1 [compound 154] | ≥ 100
COc1cc(Cn2c(CN(C(C)C)C3CCCCC3)nc3ccccc32)cc(OC)c1 [compound 3] | 50
OCCNCc1nc2ccccc2n1Cc1nc2ccccc2[nH]1 [compound 117] | ≥ 100
CN1CCCC1CCNCc1nc2ccccc2n1Cc1nc2ccccc2[nH]1 (centres unmarked) [compound 172] | 95
CN(CCc1ccccn1)Cc1nc2ccccc2n1Cc1nc2ccccc2[nH]1 [compound 98] | ≥ 100
